Results taken from ChEMBL document CHEMBL1806438, “Thrombin inhibitors with lipid peroxidation and lipoxygenase inhibitory activities” (Bioorg Med Chem Lett, 2011).

Key:
[1] = test system: Radical scavenging activity; test: Antioxidant activity assessed as DPPH radical scavenging activity at 50 uM after 60 mins; type: functional
[2] = test system: Radical scavenging activity; test: Antioxidant activity assessed as DPPH radical scavenging activity at 50 uM after 20 mins; type: functional
[3] = test system: Radical scavenging activity; test: Antioxidant activity assessed as DPPH radical scavenging activity at 10 uM after 20 mins; type: functional
[4] = Antioxidant activity against AAPH-induced linoleic acid peroxidation by UV spectrophotometry analysis; type: functional
[5] = test system: Radical scavenging activity; test: Antioxidant activity assessed as DPPH radical scavenging activity at 10 uM after 60 mins; type: functional
Glycine max = test: (§1) Inhibition of soybean lipoxygenase by UV absorbance based assay
Prothrombin = Prothrombin (Homo sapiens, UniProt P00734); test: Inhibition of thrombin using S-2238 as substrate after 15 mins by spectrophotometric analysis
[6] = as §1; parameters: species or system Glycine max
[7] = Antioxidant activity against AAPH-induced linoleic acid peroxidation at 100 uM by UV spectrophotometry analysis; type: functional

| Structure (SMILES) | IC50 [4] [µM] | inhibition (Glycine max) [%] | Ki (Prothrombin) [nM] | IC50 [6] [µM] | Activity [1] [%] | Activity [2] [%] | Activity [3] [%] | Activity [5] [%] | inhibition [7] [%] |
| --- | --- | --- | --- | --- | --- | --- | --- | --- | --- |
| CCOC(=O)C(=O)N(Cc1cccc(F)c1)c1ccc2c(c1)N(C)CC(C)(COc1ccc(C(=N)N)cc1)O2 (configuration not stated) | 90 | > 0 | – | – | 14 | 11 | 12 | 24 | – |
| CCOC(=O)CN(Cc1ccc(F)cc1)c1ccc2c(c1)N(C)CC(C)(COc1ccc(C(=N)N)cc1)O2 (configuration not stated) | 77 | – | 690 | 73 | 14 | 11 | 11 | 24 | – |
| Cc1c(C)c2c(c(C)c1O)CCC(C)(C(=O)O)O2 (configuration not stated) | – | – | – | – | – | – | – | – | 63 |
| CCOC(=O)CN(Cc1ccc(F)c(F)c1)c1ccc2c(c1)OC(C)(COc1ccc(C(=N)N)cc1)CN2C (configuration not stated) | 70 | > 0 | 430 | – | 81 | 70 | 84 | 90 | – |
| CCOC(=O)CN(Cc1cc(F)cc(F)c1)c1ccc2c(c1)OC(C)(COc1ccc(C(=N)N)cc1)CN2C (configuration not stated) | 69 | > 0 | 480 | – | 68 | 54 | 75 | 86 | – |
| CCOC(=O)CN(Cc1cccc(F)c1)c1ccc2c(c1)OC(C)(COc1ccc(C(=N)N)cc1)CN2C (configuration not stated) | 81 | > 0 | 350 | – | 63 | 48 | 71 | 85 | – |
| O=C(O)/C=C/c1ccc(O)c(O)c1 [CAFFEIC ACID] | – | – | – | 600 | – | – | – | – | – |
| CC(Cc1ccc(O)c(O)c1)C(C)Cc1ccc(O)c(O)c1 (configuration not stated) | – | – | – | – | 81 | 68 | 83 | 83 | – |
| CCOC(=O)C(=O)N(Cc1cc(F)cc(F)c1)c1ccc2c(c1)N(C)CC(C)(COc1ccc(C(=N)N)cc1)O2 (configuration not stated) | 69 | – | – | 99 | 28 | 23 | 25 | 36 | – |
| CCOC(=O)CN(Cc1ccc(F)cc1)c1ccc2c(c1)OC(C)(COc1ccc(C(=N)N)cc1)CN2C (configuration not stated) | 94.5 | > 0 | 310 | – | 70 | 62 | 88 | 93 | – |

The next lines start with results.

| IC50 [4] [µM] | inhibition (Glycine max) [%] | Ki (Prothrombin) [nM] | IC50 [6] [µM] | Structure (SMILES) | Activity [1] [%] | Activity [2] [%] | Activity [3] [%] | Activity [5] [%] | inhibition [7] [%] |
| --- | --- | --- | --- | --- | --- | --- | --- | --- | --- |
| 68 | > 0 | 660 | – | CCOC(=O)CN(Cc1ccc(F)c(F)c1)c1ccc2c(c1)N(C)CC(C)(COc1ccc(C(=N)N)cc1)O2 (configuration not stated) | 16 | 11 | 8 | 21 | – |
| 59 | 9.7 | 900 | – | CCOC(=O)CN(Cc1cccc(F)c1)c1ccc2c(c1)N(C)CC(C)(COc1ccc(C(=N)N)cc1)O2 (configuration not stated) | 14 | 11 | 10 | 23 | – |
| 61.5 | > 0 | 370 | – | CCOC(=O)C(=O)N(Cc1ccc(F)c(F)c1)c1ccc2c(c1)N(C)CC(C)(COc1ccc(C(=N)N)cc1)O2 (configuration not stated) | 28 | 23 | 35 | 46 | – |
| 36 | 41.7 | 950 | – | CCOC(=O)CN(Cc1cc(F)cc(F)c1)c1ccc2c(c1)N(C)CC(C)(COc1ccc(C(=N)N)cc1)O2 (configuration not stated) | 10 | 8 | 8 | 18 | – |
| 51 | > 0 | – | – | CCOC(=O)C(=O)N(Cc1ccc(F)cc1)c1ccc2c(c1)N(C)CC(C)(COc1ccc(C(=N)N)cc1)O2 (configuration not stated) | 12 | 10 | 10 | 21 | – |
